Where a SMILES comes first, the peptide text is derived from it. [ ]: non-standard residue; d: D form. The star is where a group is joined. 5FAM = O=C1OC2(c3ccc(O)cc3Oc3cc(O)ccc32)c2ccc(C(=O)*)cc21; βAla = NCCC(=O)O

Experimental findings from patent publication US9862746B2, “Compositions and methods relating to hindering DOT1L recruitment by MLL-fusion proteins” (The Regents of the University of Michigan, priority 2013, dated 2018) are described below.

The assay concerns the target T1, ENL L550E (Homo sapiens, UniProt Q03111, L550E).
T1 construct: MBP-ENL (489-559) L550E; made in house; host or cells: Escherichia coli BL21 (DE3)
T1 sequence (Q03111 489-559 L550E): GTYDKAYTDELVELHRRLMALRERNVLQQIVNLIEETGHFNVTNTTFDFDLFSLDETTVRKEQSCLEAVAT
Nature of the assay: FP saturation binding of Flu-DOT1L 10 mer to mutated ENL. The method, then:
To further map and determined the residues in C-terminal domain of ENL that are essential for the interaction with DOT1L (so called “hot-spots”), an ENL mutant, L550E (FIG. 7A), was prepared which was reported to block the transforming capacity of MLL-ENL fusion protein (see, e.g., Yokoyama, A., et al., (2010) Cancer cell 17, 198-212).
Fluorescence polarization (FP) assay—FP experiments were performed in 96-well, black, round-bottom plates (Corning) using the plate reader (Biotek H1 hybrid). Fluorescein tagged DOT1L 10 mer peptide (Flu-DOT1L) was used as a fluorescent probe in the FP based binding assays. […] The plate was mixed on a shaker and incubated at room temperature to reach equilibrium. The polarization values in milli-polarization units (mP) were measured at an excitation wavelength at 485 nm and an emission wavelength at 530 nm. Polarization data were analyzed using GraphPad Prism 5.0 by non-linear fitting with a one-site binding model.

On to `CC[C@H](C)[C@H](NC(=O)[C@@H]1CCCN1C(=O)[C@H](CC(C)C)NC(=O)CCNC(=O)CCNC(=O)[C@H](CCCCNC(=O)c1ccc2c(c1)C(=O)OC21c2ccc(O)cc2Oc2cc(O)ccc21)NC(C)=O)C(=O)N[C@@H](CO)C(=O)N[C@H](C(=O)N1CCC[C@H]1C(=O)N[C@@H](CC(C)C)C(=O)N[C@@H](CO)C(=O)N[C@H](C(=O)N[C@H](C(N)=O)C(C)C)[C@@H](C)O)[C@@H](C)CC` [fluorescent labeled DOT1L 10-mer peptide] (Ac-K(5FAM)[βAla][βAla]LPISIPLSTV-NH2), for which the “binding to ENL L550E mutant protein” value is on record as “did not show binding”.
